Results on 22 compounds are retold here after ChEMBL document CHEMBL4725222, “Advances in the Development of Phosphodiesterase-4 Inhibitors” (J Med Chem, 2020).

Assay [1] addresses T1, 3',5'-cyclic-AMP phosphodiesterase 4B (Homo sapiens, UniProt Q07343). Nature of the assay: Inhibition of recombinant human PDE4B2 preincubated for 30 mins followed by [3H]cyclic AMP addition and measured after 20 mins by radiometric assay.
Assay [2] addresses T2, Phosphodiesterase 4 (Homo sapiens, UniProt P27815+Q08499+Q07343+Q08493). Nature of the assay: Inhibition of PDE4 (unknown origin). The class given is protein assay.
Assay [3] can be described thus: Inhibition of recombinant human PDE4B2B (1 to 564 residues) expressed in Saccharomyces cerevisiae using cAMP as substrate preincubated for 30 mins followed by cAMP addition and measured after 60 mins by luminescence method.
Assay [4] deals with T2, Phosphodiesterase 4. The assay is described as follows: Inhibition of cytosolic PDE4 in human PMNL using [3H]cAMP as substrate by liquid scintillation counting method.
A short description of assay [5]: Antiinflammatory activity in human nasal polyp cells assessed as reduction in TNFalpha release incubated for 30 mins followed by anti-IgE stimulation and measured after 18 hrs by ELISA. The class given is functional, cell-based. To be noted: Nasal polyp cell.
For assay [6], the target named is T2, Phosphodiesterase 4. The assay is described as follows: Inhibition of PDE4 (unknown origin) expressed in Saccharomyces cerevisiae using [3H] cAMP as substrate incubated for 1 hr by scintillation proximity assay. (SPA uses beads or plates that emit light when radiolabelled molecules are held near them.)
A short description of assay [7]: Inhibition of PDE4B2B (152 to 528 residues) (unknown origin) by liquid scintillation counting method. Details: species or system Homo sapiens.
Assay [8] can be described thus: Inhibition of bovine aorta cytosolic PDE4 using cyclic AMP as substrate by liquid scintillation counting. Details: species or system Bos taurus.
The target in assay [9] is T1, 3',5'-cyclic-AMP phosphodiesterase 4B. Nature of the assay: Inhibition of human PDE4B2 expressed in HEK293 cells using cAMP as substrate incubated for 45 to 60 mins by ELISA. (In general: ELISA stands for enzyme-linked immunosorbent assay.)
Assay [10] has as its target High affinity 3',5'-cyclic-AMP phosphodiesterase 7A (Homo sapiens, UniProt Q13946). The assay is described as follows: Inhibition of human PDE7A expressed in HEK293 cells using cAMP as substrate incubated for 60 mins by ELISA.
Assay [11] can be described thus: Inhibition of human platelet derived PDE3.
The target of assay [12] is T2, Phosphodiesterase 4. The assay is described as follows: Inhibition of human neutrophil derived PDE4. The class given is protein assay.
For assay [13], the target named is T2, Phosphodiesterase 4. Nature of the assay: Inhibition of human U937 cell derived PDE4 preincubated for 15 mins followed by […] and cAMP addition and measured after 20 mins by liquid scintillation counter. The class given is protein assay.
For assay [14], the target named is T1, 3',5'-cyclic-AMP phosphodiesterase 4B. Nature of the assay: Inhibition of N-terminal GST tagged full length human PDE4B2 expressed in baculovirus infected Sf9 cell expression system using cAMP as substrate incubated for 60 mins by time-resolved fluorescence competitive immunoassay.
Assay [15] addresses 3',5'-cyclic-AMP phosphodiesterase 4C (Homo sapiens, UniProt Q08493). The assay is described as follows: Inhibition of N-terminal GST tagged full length human PDE4C1 expressed in baculovirus infected Sf9 cell expression system using cAMP as substrate incubated for 60 mins by time-resolved fluorescence competitive immunoassay.
Assay [16] deals with T2, Phosphodiesterase 4. The assay is described as follows: Inhibition of human PDE4 using [3H]cAMP as substrate incubated for 30 mins. The class given is protein assay.
Assay [17] concerns the target T3, 3',5'-cyclic-AMP phosphodiesterase 4D (Homo sapiens, UniProt Q08499). The assay is described as follows: Inhibition of PDE4D3 (unknown origin).
A short description of assay [18]: Inhibition of recombinant human His-tagged PDE7 expressed in baculovirus infected in sf9 cells incubated for 60 mins by Scintillation counting method.
In assay [19] the target is T2, Phosphodiesterase 4. The assay is described as follows: Inhibition of human U937 cell derived PDE4 using [3H]cAMP as substrate incubated for 60 mins by Scintillation proximity assay. The class given is protein assay.
Assay [20] concerns the target T1, 3',5'-cyclic-AMP phosphodiesterase 4B. The assay is described as follows: Inhibition of recombinant human PDE4B2 using cAMP as substrate preincubated for 15 mins followed by substrate addition and measured after 60 mins by Alphascreen assay.
Assay [21] has as its target T3, 3',5'-cyclic-AMP phosphodiesterase 4D. The assay is described as follows: Inhibition of PDE4D (unknown origin).
In assay [22] the target is T1, 3',5'-cyclic-AMP phosphodiesterase 4B. The assay is described as follows: Inhibition of human brain PDE4B catalytic domain using cAMP as substrate incubated for 1 hr by luminescence method.

As a reminder, the IC50 is the point on the concentration scale where inhibition reaches its midpoint. The pIC50 is −log10 of the IC50, conventionally taken in molar units. One may read the EC50 as the concentration giving half of the maximal effect.

3',5'-cyclic-AMP phosphodiesterase 4C, sequence (Q08493 whole entry): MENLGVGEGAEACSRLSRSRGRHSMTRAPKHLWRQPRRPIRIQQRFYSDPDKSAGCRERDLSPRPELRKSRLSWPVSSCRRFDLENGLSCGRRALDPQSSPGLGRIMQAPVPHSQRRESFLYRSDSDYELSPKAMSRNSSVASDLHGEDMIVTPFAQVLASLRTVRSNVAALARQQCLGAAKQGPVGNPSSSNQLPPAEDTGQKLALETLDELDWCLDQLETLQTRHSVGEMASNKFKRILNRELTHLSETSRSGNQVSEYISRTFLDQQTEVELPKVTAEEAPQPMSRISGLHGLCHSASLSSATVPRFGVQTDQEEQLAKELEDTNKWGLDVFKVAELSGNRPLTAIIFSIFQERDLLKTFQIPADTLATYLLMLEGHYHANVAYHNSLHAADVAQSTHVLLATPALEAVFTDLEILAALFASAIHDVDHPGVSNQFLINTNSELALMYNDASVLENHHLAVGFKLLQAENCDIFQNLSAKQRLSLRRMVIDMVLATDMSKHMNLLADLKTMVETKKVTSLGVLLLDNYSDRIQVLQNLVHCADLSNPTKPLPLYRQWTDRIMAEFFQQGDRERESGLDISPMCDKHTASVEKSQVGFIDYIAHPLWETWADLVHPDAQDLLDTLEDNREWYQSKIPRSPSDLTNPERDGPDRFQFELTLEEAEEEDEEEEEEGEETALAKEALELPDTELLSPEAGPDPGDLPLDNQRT
T1 sequence (Q07343 whole entry): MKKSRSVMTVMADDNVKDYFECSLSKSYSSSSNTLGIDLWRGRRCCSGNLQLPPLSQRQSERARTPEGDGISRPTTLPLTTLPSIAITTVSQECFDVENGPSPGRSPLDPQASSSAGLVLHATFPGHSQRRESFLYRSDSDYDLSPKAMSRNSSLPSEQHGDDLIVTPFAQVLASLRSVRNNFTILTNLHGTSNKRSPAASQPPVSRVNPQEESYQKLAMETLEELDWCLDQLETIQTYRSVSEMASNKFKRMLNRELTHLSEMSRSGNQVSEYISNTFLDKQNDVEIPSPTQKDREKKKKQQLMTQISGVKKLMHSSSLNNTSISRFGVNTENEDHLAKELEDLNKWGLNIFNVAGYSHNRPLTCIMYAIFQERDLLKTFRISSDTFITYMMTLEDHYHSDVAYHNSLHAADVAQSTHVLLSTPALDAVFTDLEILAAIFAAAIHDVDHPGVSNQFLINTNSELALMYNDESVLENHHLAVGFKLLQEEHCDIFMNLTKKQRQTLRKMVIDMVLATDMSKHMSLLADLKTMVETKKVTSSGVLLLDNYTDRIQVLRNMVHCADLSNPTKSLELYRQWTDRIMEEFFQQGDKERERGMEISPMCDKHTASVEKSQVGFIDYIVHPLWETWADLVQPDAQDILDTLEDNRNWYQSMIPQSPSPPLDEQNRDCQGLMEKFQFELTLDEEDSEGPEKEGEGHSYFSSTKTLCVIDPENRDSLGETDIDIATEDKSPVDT
T3 sequence (Q08499 whole entry): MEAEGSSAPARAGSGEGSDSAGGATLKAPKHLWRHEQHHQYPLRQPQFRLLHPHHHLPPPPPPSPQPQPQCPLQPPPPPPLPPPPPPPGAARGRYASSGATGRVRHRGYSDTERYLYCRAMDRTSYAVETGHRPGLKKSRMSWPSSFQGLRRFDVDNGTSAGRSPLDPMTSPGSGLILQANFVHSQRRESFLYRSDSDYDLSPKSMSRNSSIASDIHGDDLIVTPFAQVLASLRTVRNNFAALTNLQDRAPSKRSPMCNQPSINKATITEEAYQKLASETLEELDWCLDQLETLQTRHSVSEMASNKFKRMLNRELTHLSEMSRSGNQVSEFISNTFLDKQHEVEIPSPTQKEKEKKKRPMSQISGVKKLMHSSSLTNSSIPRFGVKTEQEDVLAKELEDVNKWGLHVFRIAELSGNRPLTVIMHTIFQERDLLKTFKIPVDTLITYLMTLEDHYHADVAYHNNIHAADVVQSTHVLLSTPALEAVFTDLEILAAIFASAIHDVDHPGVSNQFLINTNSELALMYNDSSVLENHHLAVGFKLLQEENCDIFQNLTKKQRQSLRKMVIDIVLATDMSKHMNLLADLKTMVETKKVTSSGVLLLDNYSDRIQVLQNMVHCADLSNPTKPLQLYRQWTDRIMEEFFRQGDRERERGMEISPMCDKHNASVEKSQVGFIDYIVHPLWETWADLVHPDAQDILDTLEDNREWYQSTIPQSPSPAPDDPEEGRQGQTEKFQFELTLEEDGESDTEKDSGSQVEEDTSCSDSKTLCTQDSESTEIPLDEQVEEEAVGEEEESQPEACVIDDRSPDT
High affinity 3',5'-cyclic-AMP phosphodiesterase 7A, sequence (Q13946 whole entry): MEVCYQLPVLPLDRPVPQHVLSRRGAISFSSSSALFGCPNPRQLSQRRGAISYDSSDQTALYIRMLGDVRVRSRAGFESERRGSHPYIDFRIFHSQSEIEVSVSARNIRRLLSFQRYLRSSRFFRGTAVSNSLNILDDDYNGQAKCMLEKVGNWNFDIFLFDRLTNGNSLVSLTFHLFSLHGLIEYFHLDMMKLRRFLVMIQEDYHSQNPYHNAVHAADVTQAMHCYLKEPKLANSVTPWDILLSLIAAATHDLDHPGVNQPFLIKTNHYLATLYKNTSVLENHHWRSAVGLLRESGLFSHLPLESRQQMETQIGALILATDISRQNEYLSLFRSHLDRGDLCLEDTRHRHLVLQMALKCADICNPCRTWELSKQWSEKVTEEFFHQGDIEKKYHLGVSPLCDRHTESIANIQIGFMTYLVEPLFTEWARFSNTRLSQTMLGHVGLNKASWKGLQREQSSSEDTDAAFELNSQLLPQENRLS

On to `Cn1nc(C(=O)NC2CCC(NC(=O)c3cc(F)cnc3Oc3cccc(-c4ccc(CCCN5CCNCC5)cc4)c3)CC2)cc1C(F)(F)F` (stereo unspecified), for which the IC50 in assay [1] is 0.01 nM.
With `O=C(O/C(=C\c1c(Cl)cncc1Cl)c1ccc(OC(F)F)c(OCC2CC2)c1)c1ccc(OC(F)F)c(OCC2CC2)c1`, the IC50 against Phosphodiesterase 4 [2] came out at 0.9 nM.
Consider `CCn1ncc2c(NC3CCOCC3)c(-c3nnc(Cc4sc(C)nc4C)o3)cnc21`, for which the pIC50 in [3] is given as 8.8.
On Phosphodiesterase 4 [4], `O=C(C(=O)c1cn(Cc2ccc(F)cc2)c2ccc(O)cc12)c1c(Cl)cncc1Cl` gave an IC50 of 9.7 nM. Further, the EC50 in [5] was 110 nM.
In the case of `CCNC(=O)c1cc(C(=O)NCCCN(C)C)cc(-c2cc(NC(=O)Nc3c(Cl)cncc3Cl)c(=O)n(CC)n2)c1`, the IC50 at Phosphodiesterase 4 [6] is given as 0.05 nM.
As to `CC(C)CC(=O)c1ccc(OC(F)F)c(OC2CCOC2)c1` (stereo unspecified), in [7], the midpoint of inhibition, the IC50, lay at 20 nM.
The compound `CCOc1cc2c(cc1OCC)C(c1ccc(CCCN3CCN(c4ccc(Cl)cc4)CC3)cc1)=NCC(=O)N2` had an IC50 in assay [8] of 40 nM.
With `CCc1nc2c(cnn2CC)c(NC2CCCCC2)c1C1=NOC2(C1)CC(C1N=NN=N1)C2` (stereo unspecified), the figures for the IC50 in assay [9] and in [10] were 5 nM and 55 nM, respectively.
In the case of `CCOc1cc2c(cc1OC)C(c1ccc(C(=O)N(C(C)C)C(C)C)cc1)=N[C@@H]1CCN(C)C[C@H]21` [PUMAFENTRINE], the IC50 in assay [11] worked out at 28 nM; at Phosphodiesterase 4 [12], 7 nM.
At Phosphodiesterase 4 [13], `COc1ccc(-c2ccc3nc(N)nc(N4CCN(C(=O)Nc5ccc(Cl)cc5)CC4)c3n2)cc1OC` had an IC50 of 0.4 nM.
Take `CCOc1cc([C@H](CS(C)(=O)=O)N2C(=O)c3cccc(NC(=O)OCCOCCOCCOCCOCCOCCOCCOCCOC)c3C2=O)ccc1OC`: the IC50 in assay [14] and in assay [15] was 3 nM in each case.
`COc1ccc(C2=CNC(=O)N(Cc3nc4cccc(C#N)c4o3)C2)cc1OC1CCCC1`: on Phosphodiesterase 4 [16], the IC50 is 12 nM.
On to `CCOc1cc([C@H](CS(C)(=O)=O)N2C(=O)c3cccc(NC(=O)OCCOCCOCCOCCOC)c3C2=O)ccc1OC`, for which the IC50 in assay [14] and in assay [15] was 3 nM throughout.
On to `CCOc1cc([C@H](CS(C)(=O)=O)N2C(=O)c3cccc(NC(=O)OCCOCCOCCOCCOCCOCCOC)c3C2=O)ccc1OC`, for which the IC50 in [14] and in [15] was 3 nM each time.
The compound `CCOC(=O)c1cnc2c(cnn2CC)c1NN=C(C)C` [ETAZOLATE] showed an IC50 in [17] of 390 nM.
With `CCOc1cc([C@H](CS(C)(=O)=O)N2C(=O)c3cccc(NC(=O)OCCOCCOCCOC)c3C2=O)ccc1OC`, the IC50 in assay [14] and in assay [15] was 3 nM in each case.
With `O=C(N[C@H]1CC[C@@H](C2C(=O)c3cc(F)cnc3N(C3CCSCC3)C2=O)CC1)c1cn2cc(F)ccc2n1` (stereo partly specified), in assay [1], the IC50 was 0.126 nM.
Take `CCOc1ccc(-c2c(C(C)(C)O)oc(=O)c3ccccc23)cc1OC1CCCC1`: the IC50 stood at 1400 nM in assay [18] and 2900 nM against Phosphodiesterase 4 [19].
On to `CCOc1cc([C@H](CS(C)(=O)=O)N2C(=O)c3cccc(NC(=O)OCCOCCOCCOCCOCCOC)c3C2=O)ccc1OC`, for which the IC50 in assay [14] and in assay [15] was 3 nM in each case.
Turning to `COc1ccc(-c2nc(C(=O)NCc3coc4ccccc34)c([C@@H](C)N)o2)c2ccc(C(F)(F)F)nc12`, in assay [20], the IC50 was 0.01 nM.
In turn, `CC1CN(C(=O)CO/N=C/c2ccc(OC(F)F)c(OC3CCCC3)c2)CC(C)O1` (stereo unspecified) registered an IC50 in assay [21] of 800 nM.
With `CC(C)Nc1nccc(-c2c(C3CC3)nn3ccccc23)n1`, the IC50 in [22] turned out to be 1200 nM.
